{"source": "paper PMC5982655", "about": "“Interaction of the New Monofunctional Anticancer Agent Phenanthriplatin With Transporters for Organic Cations” (Frontiers in Chemistry, 2018)", "key": {"hOCT1": {"target": "T1, hOCT1 (Homo sapiens, UniProt O15245)", "T1 construct": "expressed in transfected cells; gift of H. Koepsell", "T1 sequence (O15245 1-554)": "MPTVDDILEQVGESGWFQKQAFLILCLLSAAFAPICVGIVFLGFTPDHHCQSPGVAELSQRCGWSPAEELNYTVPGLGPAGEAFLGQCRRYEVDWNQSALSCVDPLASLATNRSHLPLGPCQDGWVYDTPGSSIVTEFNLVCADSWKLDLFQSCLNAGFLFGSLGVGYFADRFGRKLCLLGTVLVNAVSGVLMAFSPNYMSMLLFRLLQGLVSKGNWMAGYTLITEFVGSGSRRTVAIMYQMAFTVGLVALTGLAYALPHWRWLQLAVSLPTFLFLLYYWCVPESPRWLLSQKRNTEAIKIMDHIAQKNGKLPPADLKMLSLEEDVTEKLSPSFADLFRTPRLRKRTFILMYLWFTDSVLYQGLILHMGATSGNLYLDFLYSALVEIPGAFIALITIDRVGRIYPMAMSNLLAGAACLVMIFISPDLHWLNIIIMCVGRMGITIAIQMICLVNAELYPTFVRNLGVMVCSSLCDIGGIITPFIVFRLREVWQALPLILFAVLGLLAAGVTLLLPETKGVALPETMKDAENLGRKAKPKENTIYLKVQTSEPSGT", "test": "Inhibition of ASP+ uptake in HEK 293 cells expressing hOCT1", "type": "cell-based", "conditions": "HEK 293 hOCT1, 1 μM ASP+", "protocol": "(§1) The interaction of phenanthriplatin with transporters for organic cations (OCT1-3, MATE1, and MATE2K) was investigated by measuring its effects on the uptake of the fluorescent organic cation 4-(4-dimethylamino)styryl-N-methylpyridinium (ASP^+). Microfluorometric measurements of ASP^+ uptake were performed with a fluorescence plate reader (Infinity 200, Tecan, Crailsheim, Germany; excitation at 465 nm, emission at 590 nm) as described previously for cultured HEK 293 cells (Wilde et al., [2009]). Before measurements, the culture medium in the wells of the 96 well microtiter plate containing HEK 293 cells was replaced by a HCO3- -free Ringer-like solution containing (in mM) NaCl 145, K2HPO4 1.6, KH2PO4 0.4, D-glucose 5, MgCl2 1, calcium gluconate 1.3, and pH adjusted to 7.4. Fluorescence was measured dynamically at 37°C in each well before and after ASP^+ addition to HCO3- -free Ringer-like solution, alone or together with increasing phenanthriplatin concentrations, and plotted versus time. ASP^+ (final concentration 1 or 10 μM for experiments with OCTs or MATEs, respectively) was added after the third sampling interval. Emission from the complete area of the well bottom was analyzed four times and averaged for each well. […] Background fluorescence was measured for each plate in wells with identical solutions containing no cells and subtracted from each well containing cells. Experiments were performed with cells from one passage of the same day with controls and test replicates in the same plate.\n(§2) Data are presented as mean values ± SEM, with (n) referring to the number of wells. IC50 values defined as the concentration of platinum agent required to inhibit uptake of ASP^+ by 50% and EC50 values used to assess cell viability were obtained by sigmoidal concentration-response curve fitting using GraphPad Prism, Version 5.3 (GraphPad Software, San Diego, USA). […] For multiple comparisons, ANOVA with Bonferroni post-test was used. A P-value < 0.05 was considered statistically significant."}, "hOCT2": {"target": "T2, hOCT2 (Homo sapiens, UniProt O15244)", "T2 construct": "expressed in transfected cells; gift of H. Koepsell", "T2 sequence (O15244 1-555)": "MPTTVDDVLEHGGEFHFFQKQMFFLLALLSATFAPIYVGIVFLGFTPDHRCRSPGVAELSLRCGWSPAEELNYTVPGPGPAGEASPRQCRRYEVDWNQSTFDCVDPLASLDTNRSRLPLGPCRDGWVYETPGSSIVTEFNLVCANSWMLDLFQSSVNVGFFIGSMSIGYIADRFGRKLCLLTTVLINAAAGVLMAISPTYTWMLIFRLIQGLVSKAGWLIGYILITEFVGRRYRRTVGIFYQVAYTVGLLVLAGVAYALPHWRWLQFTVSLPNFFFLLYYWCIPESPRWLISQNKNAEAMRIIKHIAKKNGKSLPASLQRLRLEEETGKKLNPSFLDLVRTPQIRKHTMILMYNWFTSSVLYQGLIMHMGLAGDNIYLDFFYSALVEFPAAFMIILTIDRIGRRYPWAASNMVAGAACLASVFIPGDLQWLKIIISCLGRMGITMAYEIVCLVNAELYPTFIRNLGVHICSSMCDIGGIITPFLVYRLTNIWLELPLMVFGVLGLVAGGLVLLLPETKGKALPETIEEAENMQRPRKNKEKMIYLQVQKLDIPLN", "test": "Inhibition of ASP+ uptake in HEK 293 cells expressing hOCT2", "type": "cell-based", "conditions": "HEK 293 hOCT2, 1 μM ASP+", "protocol": "as §1, §2"}, "hMATE1 [1]": {"target": "T3, hMATE1 (Homo sapiens, UniProt Q96FL8)", "T3 construct": "expressed in transfected cells", "T3 sequence (Q96FL8 1-570)": "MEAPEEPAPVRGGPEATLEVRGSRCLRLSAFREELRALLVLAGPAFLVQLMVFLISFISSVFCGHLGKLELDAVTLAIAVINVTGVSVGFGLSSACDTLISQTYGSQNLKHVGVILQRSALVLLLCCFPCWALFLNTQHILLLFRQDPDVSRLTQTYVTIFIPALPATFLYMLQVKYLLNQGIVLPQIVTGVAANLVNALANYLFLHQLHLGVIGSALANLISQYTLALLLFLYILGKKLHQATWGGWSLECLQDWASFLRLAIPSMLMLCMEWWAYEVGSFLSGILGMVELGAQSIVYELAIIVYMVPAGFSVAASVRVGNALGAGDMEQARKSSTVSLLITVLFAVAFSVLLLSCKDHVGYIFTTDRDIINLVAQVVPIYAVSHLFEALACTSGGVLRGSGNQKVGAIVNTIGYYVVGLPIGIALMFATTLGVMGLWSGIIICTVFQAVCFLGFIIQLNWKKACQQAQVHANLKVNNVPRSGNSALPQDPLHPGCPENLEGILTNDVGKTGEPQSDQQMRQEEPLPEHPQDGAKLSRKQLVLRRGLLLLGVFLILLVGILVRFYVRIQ", "test": "Inhibition of ASP+ uptake in HEK 293 cells expressing hMATE1", "type": "cell-based", "conditions": "inhibition of ASP+ uptake, HEK293 hMATE1, Supplementary Figure 1", "protocol": "as §1, §2"}, "Ctr1^+/+ MEFs": {"system": "Ctr1^+/+ MEFs", "test": "MTT cell viability, Ctr1+/+ MEFs", "type": "cell-based, mouse", "conditions": "1 mM, 10 min", "protocol": "(§3) A modified 3-(4,5-dimethylthiazol-2-yl)-2,5-diphenyltetrazolium bromide (MTT) assay (Mosmann, [1983]) was used to test the chemosensitivity of cells to phenanthriplatin and, in some experiments, to cisplatin by determining the glycolysis rate via the reduction of the yellow tetrazolium salt MTT to a purple formazan dye, as previously described (Wehe et al., [2014]). Briefly, after growing for 24 h in the incubator, cells expressing or not hOCT2, hMATE1, hMATE2 or Ctr1 were treated for 10 min with platinum derivatives. Control cells were incubated with drug-free complete cell culture medium. Afterwards, the medium was carefully removed and replaced by 200 μL of fresh complete cell culture medium. After incubation for another 24 h, 10 μL of MTT solution containing 5 mg/mL of the dye were added to each well, and the cells were again incubated for 3 h. The medium was then removed and 100 μL of lysis buffer containing 10% (w/v) sodium dodecyl sulfate and 40% (v/v) dimethylformamide was added to each well. The plates were shaken for 10 min to destroy the cell structure and dissolve the blue formazan dye (Furchert et al., [2007]; Wehe et al., [2014]). Finally, the absorbance was measured at 590 nm using an automated microtiter plate reader (Infinite M200; Tecan, Männedorf, Switzerland). The percentage of viable cells in the untreated controls was compared to that for the various treatments. Experiments carried out with DAOY and UW228 cells followed a similar protocol except that these cells were incubated for 24 h with phenanthriplatin."}, "Ctr1^−/− MEFs": {"system": "Ctr1^−/− MEFs", "test": "MTT cell viability, Ctr1-/- MEFs", "type": "cell-based, mouse", "conditions": "1 mM, 10 min", "protocol": "as §3"}, "hMATE1 [2]": {"target": "T3, hMATE1", "set-up": "method as in Astorga et al., [2012]", "conditions": "ref Astorga et al., [2012]; cited from earlier work"}, "hMATE2K": {"target": "T4, hMATE2K (Homo sapiens, UniProt Q86VL8)", "T4 construct": "expressed in transfected cells", "T4 sequence (Q86VL8 1-566 isoform Q86VL8-3)": "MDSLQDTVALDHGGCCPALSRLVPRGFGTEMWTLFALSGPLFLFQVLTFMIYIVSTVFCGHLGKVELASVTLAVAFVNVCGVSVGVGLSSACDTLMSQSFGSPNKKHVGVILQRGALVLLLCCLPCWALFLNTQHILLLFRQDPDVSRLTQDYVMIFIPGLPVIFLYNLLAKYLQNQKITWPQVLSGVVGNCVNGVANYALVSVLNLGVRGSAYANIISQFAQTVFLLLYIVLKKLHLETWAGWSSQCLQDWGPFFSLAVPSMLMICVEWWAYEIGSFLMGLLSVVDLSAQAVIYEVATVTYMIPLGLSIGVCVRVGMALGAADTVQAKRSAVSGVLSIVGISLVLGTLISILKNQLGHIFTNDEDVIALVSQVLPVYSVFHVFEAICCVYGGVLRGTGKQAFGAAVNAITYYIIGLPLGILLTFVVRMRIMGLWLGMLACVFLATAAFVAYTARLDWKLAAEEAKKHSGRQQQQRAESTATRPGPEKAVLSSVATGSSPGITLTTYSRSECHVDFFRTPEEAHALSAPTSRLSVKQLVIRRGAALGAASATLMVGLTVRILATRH", "set-up": "method as in Astorga et al., [2012]", "conditions": "ref Astorga et al., [2012]; cited from earlier work"}, "HEK 293 hOCT2 cells": {"system": "HEK 293 hOCT2 cells", "test": "MTT cell viability, HEK 293 hOCT2 cells", "type": "cell-based, human", "conditions": "HEK 293 hOCT2, cimetidine alone (10 or 100 μM), 10 min", "protocol": "as §3"}}, "data": [{"smiles": "N.N.[Cl][Pt][Cl]", "note": "[cisplatin, reference compound]", "values": [{"measurement": "IC50", "setting": "hOCT1", "result": 61, "unit": "µM"}, {"measurement": "IC50", "setting": "hOCT2", "result": 50, "unit": "µM"}, {"measurement": "Interaction (affinity) with hMATE1", "setting": "hMATE1 [1]", "result": "very low affinity"}, {"measurement": "Cell viability (MTT)", "setting": "Ctr1^+/+ MEFs", "result": "toxic to Ctr1^+/+"}, {"measurement": "Cell viability (MTT)", "setting": "Ctr1^−/− MEFs", "result": "no decrease in cell viability"}]}, {"smiles": "C[n+]1ccc(-c2ccccc2)cc1", "note": "[MPP^+, 1-methyl-4-phenylpyridinium]", "values": [{"measurement": "Affinity for hMATE1", "setting": "hMATE1 [2]", "result": 4.7, "unit": "µM"}, {"measurement": "Affinity for hMATE2K", "setting": "hMATE2K", "result": 3.3, "unit": "µM"}]}, {"smiles": "CN/C(=N/CCSCc1nc[nH]c1C)NC#N", "note": "[Cimetidine, cimetidine, reference compound]", "values": [{"measurement": "Cell viability (MTT)", "setting": "HEK 293 hOCT2 cells", "result": "no significant effect on cell viability"}]}]}
